# Experimental data published in US12435108B2, “Teixobactin analogue and use thereof” (SUNSHINE LAKE PHARMA CO., LTD., priority 2019, dated 2025).
# Read-outs that look alike come from different tables or passages of the source.
# Tests used:
# [1] = system: MSSA (ATCC29213)
# Procedure: (§1) For the determination of the minimum inhibitory concentration (MIC), according to the CLSI standard, the minimum inhibitory concentration of 3 ATCC standard strains (2 strains of Staphylococcus aureus and 1 strain of Enterococcus faecium) was tested by two independent repeated experiments. Compounds were diluted two-fold in a 96-well plate from the highest detection concentration of 64 μg/mL. The test plate was placed in a common incubator and incubated at 35±2° C. for 20-24 hours. The growth of bacteria in the wells was observed and recorded. Inoculation method: 5-10 bacterial single colonies from the solid medium plate resuspended in 500 μL of 1.02×CAMHB, and then OD600 was adjusted to 0.1-0.15 with a spectrophotometer; then the bacteria were diluted 300-fold with 1.02×CAMHB to ˜2×10^5 CFU/ml (stepwise dilution, first 10-fold and then 30-fold), and the prepared bacterial inoculum was inoculated in 96-well plate within 15 minutes, the number of inoculated bacteria could be obtained by plate count. Colony count: the inoculated bacteria was diluted with liquid medium from 10^−1 to 10^−3 (such as 100 μL of bacterial inoculum+900 μL of 1.02×CAMHB); 100 μl of the above bacterial dilution was evenly spread on a TSA or TSA II plate, with 2 replicates per dilution. After the medium was absorbed by TSA or TSA II for 10 minutes, the plate was inverted and cultured at 35±2° C. for 24 hours in an incubator. Record of minimum inhibitory concentration and statistics of colony count: the minimum inhibitory concentration of each compound was recorded referring to the CLSI standard; the number of colonies of bacterial inoculum of different dilutions on the TSA or TSA II plate was counted and the amount of bacterial inoculation was calculated. Selection of strain types: MRSA (ATCC43300), MSSA (ATCC29213) and VRE (ATCC700221).
# [2] = system: MRSA (ATCC43300)
# Procedure: as §1
# [3] = system: VRE (ATCC700221)
# Procedure: as §1
# [4] = Test Method 2: 96-well plate, CAMHB, 35±2 °C, 20-24 hours, highest concentration 64 μg/mL
# [5] = 96-well plate, CAMHB, 35±2 °C, 20-24 hours, highest concentration 64 μg/mL
Structure (SMILES),"In vitro antibacterial activity MIC, MSSA(ATCC29213) [1, 4]","In vitro antibacterial activity MIC, MRSA(ATCC43300) [2, 5]","In vitro antibacterial activity MIC, VRE(ATCC700221) [3, 5]","In vitro antibacterial activity MIC, MSSA(ATCC29213) ([1]; ATCC29213)","In vitro antibacterial activity MIC, MRSA(ATCC43300) ([2]; ATCC43300)","In vitro antibacterial activity MIC, VRE(ATCC700221) ([3]; ATCC700221)"
CC[C@H](C)[C@H](NC(=O)[C@@H](Cc1ccccc1)NC)C(=O)N[C@@H](CO)C(=O)N[C@H](CCC(N)=O)C(=O)N[C@@H](C(=O)N[C@H](C(=O)N[C@@H](CO)C(=O)N[C@H]1C(=O)N[C@@H](C)C(=O)NC(C)(C)C(=O)N[C@@H]([C@@H](C)CC)C(=O)O[C@H]1C)[C@@H](C)CC)[C@@H](C)CC.O=C(O)C(F)(F)F [Example 26],64 mg/L,32 mg/L,>64 mg/L,,,
CC[C@H](C)[C@H](NC(=O)[C@@H](Cc1ccc2ccccc2c1)NC)C(=O)N[C@@H](CO)C(=O)N[C@H](CCC(N)=O)C(=O)N[C@@H](C(=O)N[C@H](C(=O)N[C@@H](CO)C(=O)N[C@H]1C(=O)N[C@@H](C)C(=O)NC2(CCCCCC2)C(=O)N[C@@H]([C@@H](C)CC)C(=O)O[C@H]1C)[C@@H](C)CC)[C@@H](C)CC.O=C(O)C(F)(F)F [Example 24],,,,4 mg/L,4 mg/L,4 mg/L
C=C[C@H]1C[C@]12NC(=O)[C@H](C)NC(=O)[C@H](NC(=O)[C@H](CO)NC(=O)[C@@H](NC(=O)[C@H](NC(=O)[C@@H](CCC(N)=O)NC(=O)[C@H](CO)NC(=O)[C@@H](NC(=O)[C@@H](Cc1csc3ccccc13)NC)[C@@H](C)CC)[C@@H](C)CC)[C@@H](C)CC)[C@H](C)OC(=O)[C@H]([C@@H](C)CC)NC2=O.O=C(O)C(F)(F)F [Example 16],,,,4 mg/L,4 mg/L,4 mg/L
C=C[C@H]1C[C@]12NC(=O)[C@H](C)NC(=O)[C@H](NC(=O)[C@H](CO)NC(=O)[C@@H](NC(=O)[C@H](NC(=O)[C@@H](CCC(N)=O)NC(=O)[C@H](CO)NC(=O)[C@@H](NC(=O)[C@@H](Cc1ccc3ccccc3c1)NC)[C@@H](C)CC)[C@@H](C)CC)[C@@H](C)CC)[C@H](C)OC(=O)[C@H]([C@@H](C)CC)NC2=O.O=C(O)C(F)(F)F [Example 22],,,,2 mg/L,2 mg/L,4 mg/L
CC[C@H](C)[C@H](NC(=O)[C@@H](Cc1ccccc1)NC)C(=O)N[C@@H](CO)C(=O)N[C@H](CCC(N)=O)C(=O)N[C@@H](C(=O)N[C@H](C(=O)N[C@@H](CO)C(=O)N[C@H]1C(=O)N[C@@H](C)C(=O)N[C@@]2(C[C@H]2CCO)C(=O)N[C@@H]([C@@H](C)CC)C(=O)O[C@H]1C)[C@@H](C)CC)[C@@H](C)CC.O=C(O)C(F)(F)F [Example 12],8 mg/L,8 mg/L,,,,
CC[C@H](C)[C@H](NC(=O)[C@@H](Cc1csc2ccccc12)NC)C(=O)N[C@@H](CO)C(=O)N[C@H](CCC(N)=O)C(=O)N[C@@H](C(=O)N[C@H](C(=O)N[C@@H](CO)C(=O)N[C@H]1C(=O)N[C@@H](C)C(=O)N[C@@]2(C[C@H]2CC(F)F)C(=O)N[C@@H]([C@@H](C)CC)C(=O)O[C@H]1C)[C@@H](C)CC)[C@@H](C)CC.O=C(O)C(F)(F)F [Example 14],,,,4 mg/L,4 mg/L,8 mg/L
CC[C@H](C)[C@H](NC(=O)[C@@H](Cc1csc2ccccc12)NC)C(=O)N[C@@H](CO)C(=O)N[C@H](CCC(N)=O)C(=O)N[C@@H](C(=O)N[C@H](C(=O)N[C@@H](CO)C(=O)N[C@H]1C(=O)N[C@@H](C)C(=O)NC2(CC2)C(=O)N[C@@H]([C@@H](C)CC)C(=O)O[C@H]1C)[C@@H](C)CC)[C@@H](C)CC.O=C(O)C(F)(F)F [Example 15],,,,4 mg/L,4 mg/L,8 mg/L
